For one data set, the target named is T1, human GR (Homo sapiens, UniProt P04150).
T1 sequence (P04150 1-777): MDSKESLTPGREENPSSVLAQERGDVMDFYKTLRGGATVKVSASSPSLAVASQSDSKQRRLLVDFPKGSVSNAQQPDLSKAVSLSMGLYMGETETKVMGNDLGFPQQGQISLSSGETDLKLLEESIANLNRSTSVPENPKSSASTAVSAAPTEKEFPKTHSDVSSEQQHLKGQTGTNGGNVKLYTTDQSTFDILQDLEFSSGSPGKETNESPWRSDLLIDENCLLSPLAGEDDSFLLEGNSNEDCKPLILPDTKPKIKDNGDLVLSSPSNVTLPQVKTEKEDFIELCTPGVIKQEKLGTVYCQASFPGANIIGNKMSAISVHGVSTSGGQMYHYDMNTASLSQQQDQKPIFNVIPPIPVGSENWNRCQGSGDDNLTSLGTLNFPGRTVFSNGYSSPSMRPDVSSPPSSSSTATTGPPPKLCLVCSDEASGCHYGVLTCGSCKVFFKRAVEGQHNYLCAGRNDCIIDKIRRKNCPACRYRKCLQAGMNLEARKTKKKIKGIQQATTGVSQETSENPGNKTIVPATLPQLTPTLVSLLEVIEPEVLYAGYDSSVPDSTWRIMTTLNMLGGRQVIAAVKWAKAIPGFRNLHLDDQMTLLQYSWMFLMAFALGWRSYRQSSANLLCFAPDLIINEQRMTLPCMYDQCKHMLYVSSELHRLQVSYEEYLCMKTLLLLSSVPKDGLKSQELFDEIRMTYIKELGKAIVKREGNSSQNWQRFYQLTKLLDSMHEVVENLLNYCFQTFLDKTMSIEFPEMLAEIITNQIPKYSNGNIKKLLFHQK
Nature of the data set: PolarScreen Glucocorticoid Receptor Competitor Assay.

The nature of data set [1]: Whole-body glucose measurement in larvae.
Description: Zebrafish embryos at 2 hpf received a chemical treatment, as indicated, with daily refreshment of the solutions, until 5 dpf. At 5 dpf, the larvae were collected in an Eppendorf tube and 100 μL of ice-cold glucose buffer was added to each sample. The larvae were homogenized using a BulletBlender® for 3 min at 8,000 rpm. The homogenates were then centrifuged at 4° C. for 8 min at 11000 rpm and the supernatant was stored at −20° C. Whole-body glucose concentrations were determined using a Glucose Colorimetric Assay kit (Cayman Chemical, USA), according to the manufacturer's instructions. In each experiment, three biological replicates were used for each treatment group, and the colorimetric assay was performed using technical duplicates.
A short description of data set [2]: Whole-body cortisol measurement using ELISA.
Description: Zebrafish embryos at 2 hpf received a chemical treatment, as indicated, with daily refreshment of the solutions, until 96 hpf. Then, the treatments were stopped and embryos were incubated in egg water until 5 dpf to avoid cross-reactivity with the compounds of the cortisol antibody used in the ELISA. Then, the treatments were stopped and replaced with egg water. At 5 dpf, the larvae were collected in an Eppendorf tube and 100 μL of ice-cold phosphate-buffered saline (PBS) was added. The larvae were homogenized using a BulletBlender® for 3 min at 8,000 rpm. Ethyl acetate was added to the homogenate and the supernatant was gathered and vaporized. A volume of 150 μl of 0.2% Bovine serum albumin (Sigma Aldrich) dissolved in phosphate-buffered saline (PBS) was added to the samples and frozen. Whole-body cortisol of the zebrafish larvae was determined by ELISA (Demeditec Diagnostics GmbH, Kiel-Wellsee, Germany), following the manufacturer's instructions. In each experiment, three biological replicates were used for each treatment group, and the colorimetric assay was performed using technical duplicates.
Data set [3] deals with il1b, il6, mmp9, mmp13, il8 mRNA. The data set can be described thus: qPCR of pro-inflammatory genes after tail wounding. Type of data set: in vivo, Zebrafish (Danio rerio). From the text: For the tail fin amputation experiments, 3 days post fertilization (dpf) larvae from the Tg(mpx:GFP^i114/mpeg1:mCherry^umsF001) line were anesthetized in 0.02% buffered aminobenzoic acid ethyl ester (tricaine) in egg water and placed on a 2% agarose-coated petri dish. The tails were partially amputated with a 1 mm sapphire blade (World Precision Instruments) under a Leica M165C stereomicroscope (Leica Microsystems, Wetzlar, Germany). Chemical treatment (or 0.1% DMSO as vehicle treatment) was started at 2 h before the amputation (pretreatment) and was continued for 4 h after the tail fin amputation (20 larvae per group, unless indicated otherwise), at which time point the larvae were fixed in 4% paraformaldehyde (PFA) overnight at 4° C. and stored at 4° C. until further examination. In some experiments, a 24 h treatment with miglustat, ME656 or MZ31 was started at 2 dpf, and these treatments were continued during the pretreatment and treatment with the other chemicals. For imaging of larvae from the Tg(mpx:GFP^i114/mpeg1:mCherry^umsF001) line, a LeicaMZ16FA fluorescence stereomicroscope with LAS 3.7 software was used. Neutrophils were detected by GFP fluorescence and macrophages by mCherry fluorescence. The neutrophil numbers were determined by blinded manual counting in a pre-determined area. When larvae from gba2^−/− or gr^s357mutant lines were used, neutrophil labeling was performed with the TSA fluorescein detection kit (PerkinElmer) for specific staining of Myeloperoxidase (Mpx)-positive cells, following the manufacturer's instructions.
For experiments in zebrafish, gene expression was measured using 3 dpf embryos. Groups of 15 larvae were collected in TRIzol reagent (Invitrogen) and mRNA was isolated using the miRNeasy mini kit (Qiagen), according to the manufacturer's instructions. For experiments in HeLa cells, samples were collected from a single well from 6 well plates (80% confluent) in TRIzol reagent and mRNA was isolated using the RNeasy mini kit. Zebrafish and cells samples were treated with DNAse utilizing the DNA-Free™ kit (Ambion). The cDNA synthesis was performed using iScript cDNA synthesis kit (Bio-Rad) using 1 μg of RNA per sample. For qPCR, 10 μM of forward and 10 μM of reverse primer, 12.5 μL of iQ SYBR Green Supermix (Bio-Rad), and 2 μL of cDNA were added to the qPCR reaction mixture. […] The qPCR reactions were performed on a MyiQ-single-color real-time PCR detection system (Bio-Rad) with initial denaturation for 3 min at 95° C. and 40 cycles of 15 s at 95.5° C., 15 s at 60° C., and 30 s at 72° C. Cycle threshold values (Ct values, i.e. the cycle numbers at which a threshold value of the fluorescence intensity was reached) were determined for each sample. The gene expression level for each sample was normalized using the expression of ppial (peptidylprolyl isomerase Ab (cyclophilin A)) for zebrafish samples, and 18S rRNA for human cells. The fold change per sample (compared to the respective control group) was calculated using the ΔΔCt method.

Another data set relates to regenerated tail fin. Nature of the data set: Regeneration of the tail fin after wounding. Type of data set: in vivo, Zebrafish (Danio rerio). Conditions: 5 dpf larvae, wounded at 2 dpf. The procedure:
When the regeneration of the tail fins after wounding or the larval body length was used as a readout, chemical treatments of the embryos were started at 2 hours post fertilization (hpf) and continued until 5 dpf. During this period, solutions were refreshed daily. At 5 dpf, larvae were imaged using a LeicaMZ16FA fluorescence stereomicroscope supported by LAS 3.7 software, and the length of the larvae was measured using ImageJ software (15 larvae per treatment group). For the regeneration experiments, tail fins were amputated at 2 dpf and larvae were imaged at 5 dpf (15 larvae per treatment group). The newly grown tissue can be distinguished from the old tissue, enabling precise measurement of the size of the newly grown tissue using ImageJ software.

The test system of another data set is Gr. Nature of the data set: Transactivation activity of Gr in Tg(9xGCRE-HSV.UI23:EGFP) reporter line. The format is in vivo, Zebrafish (Danio rerio). Conditions: 24 h treatment, 3 dpf larvae. The method, then: The Tg(9xGCRE-HSV.UI23:EGFP)^ia20 zebrafish reporter line expresses enhanced green fluorescent protein (EGFP) under the control of a promoter containing an array of nine GREs. To study the effect of chemical treatments on the transactivation activity of the Gr, 15 zebrafish embryos per group (2 dpf) were treated with the indicated compounds for 24 hours. The transactivation activity of Gr induced by the treatments was assessed using a LeicaMZ16FA fluorescence stereomicroscope supported by LAS 3.7 software. The integrated intensity of the EGFP signal in the larvae was determined using ImageJ software.

Setting [4] is: 5 dpf larvae treated from 2 hpf, non-wounded.

`C[C@]12C=CC(=O)C=C1CC[C@@H]1[C@@H]2[C@@H](O)C[C@@]2(C)[C@H]1CC[C@]2(O)C(=O)CO[C@@H]1O[C@H](CO[C@@H]2O[C@H](CO)[C@@H](O)[C@H](O)[C@H]2O)[C@@H](O)[C@H](O)[C@H]1O` [GbPdn, 21-O-Gentobiose-Prednisolone]: the “decrease in the binding affinity relative to Pdn” value at human GR is listed as approximately 1400 fold. Also, the “whole body glucose level” value in data set [1] (setting [4]) is given as “did not affect the glucose or cortisol concentration”. In addition, the “whole body glucose level under wounding conditions” value in data set [1] (5 dpf larvae, wounded at 2 dpf) is listed as “increase in glucose levels”. In addition, the “whole body cortisol level” value in data set [2] (setting [4]) is recorded as “did not affect the glucose or cortisol concentration”. In addition, the “whole body cortisol level under wounding conditions” value in data set [2] (5 dpf larvae, wounded at 2 dpf) is “decrease in cortisol concentration”. Besides, the “expression of the pro-inflammatory genes il1b, il6 and il8” value in data set [3] is “suppression of the expression”. Further, in the data set on regenerated tail fin, the “tissue regeneration (length of regenerated tail fin)” value is “small effect”. The “tissue regeneration with MZ31” value in the data set with regenerated tail fin (GBA2 inhibitor MZ31) was “dependent on Gba2 activity”. Also, the “transactivation activity of Gr (GFP signal in GRE:GFP reporter fish line)” value in the data set on Gr is recorded as “neither GPdn nor GbPdn induced the transactivation activity of the Gr”.
